Reference: patent publication US4542123A (Massachusetts Institute of Technology, priority 1982, dated 1985)

Test: Plasma amino acid levels after glucose ingestion (Example I, Table 1)
Type: in vivo, human
Method: Six healthy, non-obese, fasting subjects each received, on different days 0, 6, 12.5, 25 or 50 g of glucose (Glucola) in a total volume of 100 ml.
Following a protocol approved by the Massachusetts Institute of Technology Committee on the Use of Humans as Experimental Subjects, 6 healthy volunteer outpatients, aged 25-33 years, participated in the study; 3 were males and 3 females. Mean weight was 60 kg for the women and 70 for the men; all subjects were within 10% of their ideal body weight as determined by Metropolitan Life Insurance Company tables. […] Subjects were asked to take meals rich in carbohydrate content (about 300 g/day) for 3 days before beginning the study. On 5 separate days, each subject fasted from 8 p.m. until 9 the next morning and then received a load of 0, 6, 12.5, 25 or 50 g of glucose (caffeine-free glucola) dissolved in water in a total volume of 100 ml; the order of doses was randomized. Venous blood samples were drawn from the antecubital vein through an indwelling catheter at 0, 60 and 120 min for all doses and additionally at 30 and 180 min for the 12.5, 25 and 50 g doses. Blood was collected in heparanized tubes; after centrifugation plasma was stored at -20° C. until analyzed. […] Glucose was analyzed spectrophotometrically after reaction with O-toluidine in hot acidic acid (Sigma Bulletin #635;15). Insulin was measured using a commercial radioimmunoassay kit by a double antibody method (Bio-RIA, Louisville, Ky.). Plasma tryptophan was measured fluorometrically on 20 μl plasma aliquots by the method of Denckla and Dewey, J. Lab. Clin. Med. 69: 160-169, 1967, as modified by Lehman, Scand. J. Clin. Lab. Invest. 28: 49-55, 1971. Branched-chain amino acids and aromatic amino acids were measured in 500 μl aliquots of plasma, deproteinized with sulfosalicylic acid, using a Beckman amino acid analyzer (Beckman Instruments, Palo Alto, Calif., Model 119C).
Data, given as means ±SE errors, were analyzed by two-way analysis of variance; factors compared were dose and time. The Scheffe test was employed to test the statistical significance of differences; p<0.05 was considered significant. Areas under the curves were evaluated by the method of trapezoid approximation. Student tests for paired data were used to evaluate the significance of changes in individual amino acids. Amino acid concentrations after treatments for each subject were also expressed as a percentage of that day's pretreatment levels; mean percent changes were then calculated for each treatment and time interval.
Sum of the LNAA: total concentration of leucine, isoleucine, valine,
the sum of the LNAA, measured 0, 60 and 120 min after 6 nonobese, fasting
subjects ingested 0, 6, 12.5, 25 or 50 g of glucose. All plasma amino
acids, except tryptophan, were measured on a Beckman amino acid analyzer.
Tryptophan was measured by the method of Denckla and Dewey. Data are
expressed as means ± S.E.M.

Q: What does the source list for `O=C[C@H](O)[C@@H](O)[C@H](O)[C@H](O)CO` [Glucose, glucose]?
A: Absolute leucine concentrations (6-50 g glucose): decreased significantly after 6-50 g; LNAA concentrations, some subjects (6 g of glucose): transiently decreased LNAA concentrations; All other amino acids (absolute concentrations) (12.5-50 g glucose): decreased significantly after 12.5-50 g; Relationship between rise in plasma insulin and fall in LNAA (areas under the curve) (12.5-50 g glucose, subjects 2 and 4, not robust for other subjects): clear inverse linear relationship; Decrease of plasma LNAA vs 0 and 6 g doses (25 and 50 g, 60 and 120 min, P<0.05): significantly greater than those following the 0 and 6 g doses; Decrease of branched-chain amino acids (50 g glucose, 120 min): 35-41%; Decrease of methionine (50 g glucose, 120 min): 31%; Decrease of phenylalanine and tyrosine (50 g glucose, 120 min): 29-31%; Decrease of tryptophan (50 g glucose, 120 min): 23%; Percent reduction in plasma LNAA, 50-g vs 25-g dose (50 g vs 25 g glucose): not consistently associated with a greater percent reduction in plasma LNAA; Absolute concentrations of amino acids, 50-g vs 25-g dose (50 g vs 25 g glucose, 120 min, zero-time LNAA also lower): lower absolute concentrations of the amino acids than the 25-g dose after 120 min; Plasma LNAA concentrations (percent of pre-treatment) (60 and 120 min): dose-related depression of plasma LNAA concentrations; Correlation (r) of glucose dose with mean percent decrease in LNAA (120 min, P<0.01): 0.80; Decrease of branched-chain amino acids (after 50 g of glucose): 35-41%; Fall of plasma tyrosine concentrations (after 50 g of glucose): 23%; Ratio of plasma tyrosine to other plasma LNAA (after 50 g of glucose): increased significantly; Absolute isoleucine concentrations (after all treatments (0-50 g glucose)): decreased significantly with time after all treatments; Tyrosine/LNAA ratio (any glucose dose): did not change significantly; Plasma Iso level (glucose 6 g, 0 min): 60 ± 7 nmol/mL; Plasma LNAA (sum) (glucose 6 g, 0 min): 522 ± 47 nmol/mL; Plasma Leu level (glucose 6 g, 0 min): 113 ± 11 nmol/mL; Plasma Met level (glucose 6 g, 0 min): 24 ± 4 nmol/mL; Plasma Phe level (glucose 6 g, 0 min): 50 ± 3 nmol/mL; Plasma Trp level (glucose 6 g, 0 min): 46 ± 4 nmol/mL; Plasma Tyr level (glucose 6 g, 0 min): 57 ± 8 nmol/mL; Plasma Val level (glucose 6 g, 0 min): 220 ± 19 nmol/mL; Trp/LNAA (glucose 6 g, 0 min): .088; Plasma Iso level (glucose 6 g, 60 min): 51 ± 4 nmol/mL; Plasma Leu level (glucose 6 g, 60 min): 100 ± 12 nmol/mL; Plasma Met level (glucose 6 g, 60 min): 21 ± 3 nmol/mL; Plasma Phe level (glucose 6 g, 60 min): 46 ± 2 nmol/mL; Plasma Trp level (glucose 6 g, 60 min): 43 ± 4 nmol/mL; Plasma Tyr level (glucose 6 g, 60 min): 51 ± 7 nmol/mL; Plasma Val level (glucose 6 g, 60 min): 201 ± 15 nmol/mL; Trp/LNAA (glucose 6 g, 60 min): .092; Plasma Iso level (glucose 6 g, 120 min): 51 ± 5 nmol/mL; Plasma LNAA (sum) (glucose 6 g, 120 min): 471 ± 37 nmol/mL; Plasma Leu level (glucose 6 g, 120 min): 101 ± 9 nmol/mL; Plasma Met level (glucose 6 g, 120 min): 22 ± 3 nmol/mL; Plasma Phe level (glucose 6 g, 120 min): 47 ± 3 nmol/mL; Plasma Trp level (glucose 6 g, 120 min): 41 ± 4 nmol/mL; Plasma Tyr level (glucose 6 g, 120 min): 50 ± 6 nmol/mL; Plasma Val level (glucose 6 g, 120 min): 200 ± 16 nmol/mL; Trp/LNAA (glucose 6 g, 120 min): .086; Plasma Iso level (glucose 12.5 g, 0 min): 65 ± 5 nmol/mL; Plasma LNAA (sum) (glucose 12.5 g, 0 min): 574 ± 15 nmol/mL; Plasma Leu level (glucose 12.5 g, 0 min): 117 ± 10 nmol/mL; Plasma Met level (glucose 12.5 g, 0 min): 27 ± 2 nmol/mL; Plasma Phe level (glucose 12.5 g, 0 min): 54 ± 4 nmol/mL; Plasma Trp level (glucose 12.5 g, 0 min): 45 ± 2 nmol/mL; Plasma Tyr level (glucose 12.5 g, 0 min): 58 ± 4 nmol/mL; Plasma Val level (glucose 12.5 g, 0 min): 255 ± 47 nmol/mL; Trp/LNAA (glucose 12.5 g, 0 min): .079; Plasma Iso level (glucose 12.5 g, 60 min): 53 ± 4 nmol/mL; Plasma LNAA (sum) (glucose 12.5 g, 60 min): 501 ± 66 nmol/mL; Plasma Leu level (glucose 12.5 g, 60 min): 96 ± 10 nmol/mL; Plasma Met level (glucose 12.5 g, 60 min): 25 ± 1 nmol/mL; Plasma Phe level (glucose 12.5 g, 60 min): 50 ± 3 nmol/mL; Plasma Trp level (glucose 12.5 g, 60 min): 40 ± 1 nmol/mL; Plasma Tyr level (glucose 12.5 g, 60 min): 52 ± 3 nmol/mL; Plasma Val level (glucose 12.5 g, 60 min): 226 ± 48 nmol/mL; Trp/LNAA (glucose 12.5 g, 60 min): .080; Plasma Iso level (glucose 12.5 g, 120 min): 48 ± 3 nmol/mL; Plasma LNAA (sum) (glucose 12.5 g, 120 min): 582 ± 49 nmol/mL; Plasma Leu level (glucose 12.5 g, 120 min): 95 ± 9 nmol/mL; Plasma Met level (glucose 12.5 g, 120 min): 23 ± 1 nmol/mL; Plasma Phe level (glucose 12.5 g, 120 min): 46 ± 2 nmol/mL; Plasma Trp level (glucose 12.5 g, 120 min): 41 ± 1 nmol/mL; Plasma Tyr level (glucose 12.5 g, 120 min): 50 ± 3 nmol/mL; Plasma Val level (glucose 12.5 g, 120 min): 221 ± 98 nmol/mL; Trp/LNAA (glucose 12.5 g, 120 min): .084
